Columns and labels:
[1] = tested on: delF508-CFTR containing epithelial CF cells (CF15); assay: cAMP-activated chloride current, perforated whole-cell patch-clamp / iodide efflux in CF15 cells; assay type: cell-based, human; settings: 10 nM; del F508-CFTR containing epithelial CF cells
Text: The effects of AMP-DNM on cAMP-activated chloride current in delF508-CFTR containing epithelial CF cells were studied with the following assay:
Perforated whole-cell patch-clamp analysis was applied to CF15 cells (human nasal epithelial cell line obtained from delF508 homozygous patient). Patch electrodes (GC150-TF10, Harvard Apparatus, USA) filled with intracellular solution (resistances of 3-4 MΩ) were connected to the RK-400 amplifier (Biologic, France) through an Ag/AgCl pellet. External solution (mM): 145 NaCl, 4 CsCl, 1 MgCl2, 1 CaCl2, 5 d-glucose, 10 TES (pH 7.4, 315 mOsm). Intra-pipette solution (mM): 113 l-aspartic acid, 113 CsOH, 27 CsCl, 1 NaCl, 1 EGTA, 1 MgCl2, 3 Mg-ATP (ex-temporane), 10 TES (pH 7.2 with CsOH, 285 mOsm) and amphotericin B (100 μg/ml) renewed every 2 h. Only cells with input resistance […] were analysed. The mean access resistance and whole cell capacitance were 12±0.6 MΩ and 35±4.3 pF (n=44). Currents were obtained in response to voltage steps from −80 to +80 mV in 20 mV increment. Data were collected using pClamp 6.0.3 package software (Axon Instruments, USA). CFTR Cl^− channel activity was assayed on a cell population by the iodide (^125I) efflux technique.

[2] = tested on: delF508-CFTR in ileal mucosa; assay: intestine explants from ileal mucosa of delF508 mice (short-circuit current, Western blot, immunohistochemistry); settings: 10 nM
Procedure: To test the therapeutic potential of GBA2 inhibitors for CF further the effects of AMP-DNM on intestine explants from ileal mucosa of delF508 mice were analysed. The following assay was used:
Rotterdam delF508/delF508-CFTR mice (Cfr^tm1 Eur), their littermate controls (FVB inbred, 14-17 weeks old, weight between 20 and 30 g, kept on solid food in a pathogen-free environment) and Cftr-KO mice (Cftr^tm2 Cam) were used. Muscle-stripped ileal mucosa was incubated in William's E-Glutamax medium supplemented with insulin (10 μg/ml) and dexamethasone (20 μg/ml). At different time points, the compound was removed by repeated washings followed by short-circuit current (Isc) measurements in mini-Ussing chambers. Western blotting was as performed and immunoblots were probed with monoclonal mouse anti-CFTR antibody (10 μg/ml, IgG1 M3A7, Chemicon, USA). The protein levels were expressed as densitometry and percentage of controls. For immunohistochemistry, tissues were fixed in 4% (wt/vol) paraformaldehyde. Sections (5 μm) were stained with the antibody R3195 (1:500).

[3] = target: T1, glucosylceramide synthase (GCS) (Homo sapiens, UniProt Q16739); assay: glucosylceramide synthase (GCS) IC50 determination; assay type: biochemical; settings: for IC50: enzyme preparations exposed to dilutions of inhibitor
T1 sequence (Q16739 1-394): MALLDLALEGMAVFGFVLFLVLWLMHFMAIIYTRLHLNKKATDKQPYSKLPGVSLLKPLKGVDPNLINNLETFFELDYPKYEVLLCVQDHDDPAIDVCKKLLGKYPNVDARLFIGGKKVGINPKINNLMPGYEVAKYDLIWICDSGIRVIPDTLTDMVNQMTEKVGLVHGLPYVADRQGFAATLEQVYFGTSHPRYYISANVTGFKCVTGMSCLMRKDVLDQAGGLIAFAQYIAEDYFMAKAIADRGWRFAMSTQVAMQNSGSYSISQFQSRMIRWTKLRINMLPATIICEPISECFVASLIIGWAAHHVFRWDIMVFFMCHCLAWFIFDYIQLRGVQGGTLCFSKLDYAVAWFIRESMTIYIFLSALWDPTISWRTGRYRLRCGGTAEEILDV

[4] = target: T2, GBA2 (non-lysosomal glucosylceramidase) (Homo sapiens, UniProt Q9HCG7); assay: non-lysosomal glucosylceramidase (GBA2) IC50 determination; assay type: biochemical; settings: enzyme preparations exposed to dilutions of inhibitor
T2 construct: host or cells: GBA2 containing membranes
T2 sequence (Q9HCG7 1-927): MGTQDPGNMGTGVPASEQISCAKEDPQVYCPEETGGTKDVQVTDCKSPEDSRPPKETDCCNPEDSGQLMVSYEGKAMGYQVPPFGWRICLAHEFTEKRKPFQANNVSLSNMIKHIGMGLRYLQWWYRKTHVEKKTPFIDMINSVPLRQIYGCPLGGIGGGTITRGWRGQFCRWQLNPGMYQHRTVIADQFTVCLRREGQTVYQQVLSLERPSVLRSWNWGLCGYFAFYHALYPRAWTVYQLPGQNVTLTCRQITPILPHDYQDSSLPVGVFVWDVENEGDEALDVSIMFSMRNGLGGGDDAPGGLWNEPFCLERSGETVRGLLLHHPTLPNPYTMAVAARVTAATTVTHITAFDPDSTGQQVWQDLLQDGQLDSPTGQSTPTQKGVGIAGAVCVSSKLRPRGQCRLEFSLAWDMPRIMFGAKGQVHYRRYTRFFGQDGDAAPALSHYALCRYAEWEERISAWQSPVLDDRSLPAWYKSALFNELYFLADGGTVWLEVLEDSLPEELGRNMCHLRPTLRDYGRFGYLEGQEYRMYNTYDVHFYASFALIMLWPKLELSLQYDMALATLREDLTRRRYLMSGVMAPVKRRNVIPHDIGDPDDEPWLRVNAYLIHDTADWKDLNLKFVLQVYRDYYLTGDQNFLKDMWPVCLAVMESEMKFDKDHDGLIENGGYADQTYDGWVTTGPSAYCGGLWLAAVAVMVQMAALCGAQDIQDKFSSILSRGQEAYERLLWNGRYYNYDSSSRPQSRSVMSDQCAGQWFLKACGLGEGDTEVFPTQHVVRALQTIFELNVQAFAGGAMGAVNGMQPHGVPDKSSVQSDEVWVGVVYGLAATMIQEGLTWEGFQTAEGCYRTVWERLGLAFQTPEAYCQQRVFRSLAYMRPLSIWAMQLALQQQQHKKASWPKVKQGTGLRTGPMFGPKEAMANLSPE

SMILES	restoration of cAMP-activated chloride current, % of normal levels [1]	rescue of delF508-CFTR in intestinal crypts of ileal mucosa [2]	IC50 [3] [µM]	IC50 [4] [µM]	inhibition of GCS (in words) [3]
OC[C@@H]1[C@@H](O)[C@H](O)[C@@H](O)CN1CCCCCOCC12CC3CC(CC(C3)C1)C2 [AMP-DNM, N-[5′-(adamantan-1′-yl-methoxy)-pentan]-1-deoxynojirimycin]	up to 30%	rescues a mature and functional delF508-CFTR			
OC[C@@H]1[C@@H](O)[C@H](O)[C@@H](O)CN1CCCCCCC12CC3CC(CC(C3)C1)C2 [N-[6′-adamantyl-hexan]-1-deoxynojirimycin]			7.5	0.001	
CC(C)(C)COCCCCCN1C[C@H](O)[C@@H](O)[C@H](O)[C@H]1CO [N-[5′-neopentyloxy-pentan]-1-deoxynojirimycin]			> 100		hardly inhibits GCS
OC[C@@H]1[C@@H](O)[C@H](O)[C@@H](O)CN1CCCCOCC12CC3CC(CC(C3)C1)C2 [N-[5′-(adamantan-1′-yl-methoxy)-butan]-1-deoxynojirimycin]			10	0.002	
